pIC50: −log10 of the molar value. Blank lines part the entries; values can stand above or below the molecule they belong to.
Columns and labels:
[1] = target: T1, truncated His-MBP-Tev-KLHDC2 (residues 1-363) (Homo sapiens, UniProt Q9Y2U9); test: KLHDC2 FP competition binding assay; settings: 15 nM KLHDC2 (residues 1-363), 10 nM fluorescein-labeled diglycine peptide probe, read-out: KLHDC2 binding Human FP: average external IC50
T1 construct: truncated His -MBP-Tev-KLHDC2 (residues 1-363) purified from E. coli; made in house; host or cells: E. coli
T1 sequence (Q9Y2U9 1-363): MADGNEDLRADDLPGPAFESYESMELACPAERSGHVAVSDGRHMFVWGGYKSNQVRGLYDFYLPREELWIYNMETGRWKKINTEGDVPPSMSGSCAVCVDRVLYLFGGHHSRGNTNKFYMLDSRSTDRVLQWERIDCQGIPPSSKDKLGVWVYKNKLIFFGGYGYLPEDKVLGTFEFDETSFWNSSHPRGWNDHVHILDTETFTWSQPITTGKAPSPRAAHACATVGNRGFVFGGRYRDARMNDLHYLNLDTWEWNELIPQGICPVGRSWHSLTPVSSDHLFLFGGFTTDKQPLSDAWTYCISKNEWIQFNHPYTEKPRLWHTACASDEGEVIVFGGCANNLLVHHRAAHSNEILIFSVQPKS

[2] = target: T1, truncated His-MBP-Tev-KLHDC2 (residues 1-363); test: KLHDC2 HTRF binding assay; settings: 1 nM KLHDC2 (residues 1-363), fluorescein-labeled diglycine peptide probe

SMILES: COc1cccc2c(N3CCC[C@H](C(=O)Nc4ccc(F)c(CC(=O)O)c4)C3)cncc12 [I-6]
pIC50 [1]: 6.30 to 7.30
pIC50 [2]: > 7.30

SMILES: CNc1cncc(N2CCC[C@H](C(=O)Nc3ccc(F)c(CC(=O)O)c3)C2)c1 [I-19]
pIC50 [1]: 5.30 to 6.30
pIC50 [2]: 6.30 to 7.30

SMILES: O=C(O)Cn1cc(N2C[C@]3(CCCN(c4cccnc4)C3)CC2=O)ccc1=O [I-16]
pIC50 [1]: < 5.30
pIC50 [2]: < 5.30

SMILES: O=C(O)Cn1cc(NC(=O)[C@H]2CN(c3cccnc3)Cc3ccccc32)ccc1=O [I-32]
pIC50 [1]: < 5.30
pIC50 [2]: 5.30 to 6.30

SMILES: O=C(O)Cn1cc(NC(=O)[C@@H]2CN(c3cccnc3)Cc3ccccc32)ccc1=O [I-34]
pIC50 [1]: < 5.30
pIC50 [2]: < 5.30

SMILES: NCCCCCCCCCc1ccc2c(-c3cccc(C(=O)Nc4ccc(=O)n(CC(=O)O)c4)c3)cncc2c1 [I-107]
pIC50 [1]: < 5.30
pIC50 [2]: > 7.30

SMILES: N#Cc1cc(=O)n(CC(=O)O)cc1NC(=O)[C@H]1CCCN(c2cccnc2)C1 [I-26]
pIC50 [1]: 5.30 to 6.30
pIC50 [2]: 6.30 to 7.30

SMILES: COc1cc(-c2ccc(Cl)cc2)ccc1C(=O)Nc1ccc(=O)n(CC(=O)O)c1 [I-134]
pIC50 [1]: 5.30 to 6.30
pIC50 [2]: 6.30 to 7.30

SMILES: C[C@@H](C(=O)O)n1cc(NC(=O)c2cccc(-c3cccnc3)c2)ccc1=O [I-71]
pIC50 [1]: < 5.30
pIC50 [2]: < 5.30

SMILES: O=C(Nc1ccc(=O)n(Cc2nn[nH]n2)c1)c1cccc(-c2cccnc2)c1 [I-79]
pIC50 [1]: < 5.30
pIC50 [2]: < 5.30

SMILES: Cc1sc2c(c1C)C(c1ccc(Cl)cc1)=N[C@@H](CC(=O)NCCCCCCc1ccc(C(=O)Nc3ccc(=O)n(CC(=O)O)c3)cc1-c1cccnc1)c1nnc(C)n1-2 [I-473]
pIC50 [1]: > 7.30
pIC50 [2]: 6.30 to 7.30

SMILES: O=C(O)Cn1cc(N2CCC3(CCN(c4cccnc4)CC3)C2=O)ccc1=O [I-38]
pIC50 [1]: < 5.30
pIC50 [2]: < 5.30

SMILES: C[C@]1(C(=O)Nc2ccc(=O)n(CC(=O)O)c2)CCCN(c2cccnc2)C1 [I-75]
pIC50 [1]: 5.30 to 6.30
pIC50 [2]: 5.30 to 6.30

SMILES: C[C@H](C(=O)O)n1cc(NC(=O)c2cccc(-c3cccnc3)c2)ccc1=O [I-72]
pIC50 [1]: < 5.30
pIC50 [2]: 5.30 to 6.30

SMILES: O=C(O)CN1CC(NC(=O)c2cccc(-c3cccnc3)c2)CCC1=O (stereo not drawn) [I-86]
pIC50 [1]: < 5.30
pIC50 [2]: < 5.30

Further lines, results first:

pIC50 [1]: < 5.30
pIC50 [2]: < 5.30
SMILES: O=C(O)Cn1cc(NC(=O)C2CCCc3cc(O)ccc32)ccc1=O (stereo not drawn) [I-245]

pIC50 [1]: < 5.30
pIC50 [2]: < 5.30
SMILES: Nc1ccc(-c2ccc(=O)n(CC(=O)O)c2)cn1 [I-367]

pIC50 [1]: < 5.30
pIC50 [2]: < 5.30
SMILES: O=C(O)Cn1cc(CNC(=O)c2ccccc2)ccc1=O [I-299]

pIC50 [1]: < 5.30
pIC50 [2]: < 5.30
SMILES: Cc1ccc2nc(C(=O)Nc3ccc(=O)n(CC(=O)O)c3)ccc2c1 [I-187]

pIC50 [1]: < 5.30
pIC50 [2]: < 5.30
SMILES: O=C(O)CN1CC(NC(=O)c2cccc(-c3ccccc3)c2)CCC1=O (stereo not drawn) [I-206]

pIC50 [1]: < 5.30
pIC50 [2]: < 5.30
SMILES: O=C(O)C1CC(=O)N(C2CCSc3ccccc32)C1 (stereo not drawn) [I-213]

pIC50 [1]: < 5.30
pIC50 [2]: < 5.30
SMILES: CN(C(=O)c1ccccc1)c1ccc(=O)n(CC(=O)O)c1 [I-286]

pIC50 [1]: < 5.30
pIC50 [2]: < 5.30
SMILES: Cc1ccc2cc(C(=O)Nc3ccc(=O)n(CC(=O)O)c3)c(C)nc2c1 [I-191]

pIC50 [1]: 6.30 to 7.30
pIC50 [2]: 5.30 to 6.30
SMILES: COc1cc(-c2ccc(F)c(CCCCCCCCCNC(=O)C[C@@H]3N=C(c4ccc(Cl)cc4)c4c(sc(C)c4C)-n4c(C)nnc43)c2)ccc1C(=O)Nc1ccc(=O)n(CC(=O)O)c1 [I-469]

pIC50 [1]: < 5.30
pIC50 [2]: < 5.30
SMILES: CN(C)C(=O)c1ccc(-c2ccc(=O)n(CC(=O)O)c2)cc1Cl [I-388]

pIC50 [1]: < 5.30
pIC50 [2]: < 5.30
SMILES: CN1CCN(Cc2cccc(-c3ccc(=O)n(CC(=O)O)c3)c2)CC1 [I-305]

pIC50 [1]: < 5.30
pIC50 [2]: < 5.30
SMILES: O=C(O)Cn1cc(-c2ccc(N3CCCC3)nc2)ccc1=O [I-380]

pIC50 [1]: < 5.30
pIC50 [2]: 5.30 to 6.30
SMILES: O=C(O)Cn1cc(NC(=O)c2cccc(-c3cccc(Cl)c3)c2)ccc1=O [I-293]

pIC50 [1]: < 5.30
pIC50 [2]: < 5.30
SMILES: Cc1ccc2c(c1C)NC(C(=O)O)C1CC=CC21 (stereo not drawn) [I-426]

pIC50 [1]: < 5.30
pIC50 [2]: < 5.30
SMILES: O=C(O)Cn1cc(-c2ccccc2Cl)ccc1=O [I-379]
